Data on 22 compounds can be found in US10815210B2, “Benzocyclobutane derivatives useful as dual SGLT1 / SGLT2 modulators” (Janssen Pharmaceutica NV, priority 2016, dated 2020).

The target in assay [1] is T1, human SGLT1 (Homo sapiens, UniProt P13866).
T1 construct: expressed in transfected cells; host or cells: CHO-K1
T1 sequence (P13866 1-664): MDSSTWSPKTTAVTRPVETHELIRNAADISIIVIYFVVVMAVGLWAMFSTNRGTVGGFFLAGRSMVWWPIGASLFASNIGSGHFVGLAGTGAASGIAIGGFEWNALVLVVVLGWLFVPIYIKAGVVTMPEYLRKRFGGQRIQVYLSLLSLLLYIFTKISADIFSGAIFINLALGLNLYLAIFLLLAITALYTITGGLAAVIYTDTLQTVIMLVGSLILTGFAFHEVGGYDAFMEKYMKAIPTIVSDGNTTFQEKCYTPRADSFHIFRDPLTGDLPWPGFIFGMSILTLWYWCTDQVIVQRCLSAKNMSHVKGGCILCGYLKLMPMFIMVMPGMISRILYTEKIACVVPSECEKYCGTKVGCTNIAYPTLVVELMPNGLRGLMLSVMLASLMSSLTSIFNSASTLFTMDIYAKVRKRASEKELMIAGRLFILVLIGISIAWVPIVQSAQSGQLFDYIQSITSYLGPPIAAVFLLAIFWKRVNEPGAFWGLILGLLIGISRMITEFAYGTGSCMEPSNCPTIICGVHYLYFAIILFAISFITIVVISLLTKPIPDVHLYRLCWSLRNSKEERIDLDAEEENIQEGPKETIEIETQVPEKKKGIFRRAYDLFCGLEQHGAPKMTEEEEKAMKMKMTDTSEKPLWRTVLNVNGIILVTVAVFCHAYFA
The assay can be described thus: SGLT1 assay: Na-dependent 14C-AMG uptake in CHO-K1 cells stably expressing human SGLT1. The assay is classed as cell-based. As to conditions: 500 μM AMG, 2 hours at 37° C. On the procedure: (§1) SGLT1 and SGLT2 were cloned in form of cDNA from human small intestine (Genbank M24847), and from human kidney (Genbank M95549), respectively. Subsequently, each full cDNA was subcloned into pcDNA with each construct's integrity verified through follow-on sequencing. To generate CHO-K1 cells that stably express human SGLT1 or human SGLT2, CHO-K1 cells were transfected using DMRIE-C reagent (Life Technologies, Gaithersburg, Md.). Transfected cells were then selected in the presence of 500 μg/ml of the Geneticin (G418 Cellgro Catalog No. 30234-CI)
(§2) Individual clones were then characterized using the following cell-based assay for sodium-dependent glucose transport:
(§3) Inhibition of SGLT1 and SGLT2 activity was assessed in CHO K1 cells stably expressing either human SGLT1 or SGLT2, using the SGLT specific glucose analog methyl-glucopyranoside (Sigma Catalog No. M-9376). Cells were plated (45,000 cells/well) in white wall 96-well plates (COSTAR, Cat#3903) for 24 hours in growth medium, then a final concentration of 10 mM Na-Butyrate (ALDRICH Cat#30341-0) was added. The cells were incubated for 24 hours. On the day of the assay, cells were rinsed and treated with test compounds (at concentrations of 0.001 μM to 10 μM) in assay buffer (50 mM HEPES, 20 mM Tris base, 5 mM KCl, 1 mM MgCl2, 1 mM CaCl2 and 137 mM NaCl, pH 7.4) for 10 minutes. Cells were then incubated with ^14C-a-methyl-d-glucopyranoside (AMG, Amersham Catalog No. CFB 76), using 0.07 μCi per well in 500 μM AMG final concentration. The cells were incubated for 2 hours at 37° C. with 5% CO2 and washed two times with ice-cold Phosphate Buffer Solution (Cellgro Catalog No. 21030-CV). The cells were then solubilized by adding 60 μl of MICROSCINT™20 and the Na-dependent ^14C-AMG uptake was quantified by measuring radioactivity. Plates were counted in a TopCount (Packard, Meriden, Conn.)

In assay [2] the target is T2, human SGLT2 (Homo sapiens, UniProt P31639).
T2 construct: expressed in transfected cells; host or cells: CHO-K1
T2 sequence (P31639 1-672): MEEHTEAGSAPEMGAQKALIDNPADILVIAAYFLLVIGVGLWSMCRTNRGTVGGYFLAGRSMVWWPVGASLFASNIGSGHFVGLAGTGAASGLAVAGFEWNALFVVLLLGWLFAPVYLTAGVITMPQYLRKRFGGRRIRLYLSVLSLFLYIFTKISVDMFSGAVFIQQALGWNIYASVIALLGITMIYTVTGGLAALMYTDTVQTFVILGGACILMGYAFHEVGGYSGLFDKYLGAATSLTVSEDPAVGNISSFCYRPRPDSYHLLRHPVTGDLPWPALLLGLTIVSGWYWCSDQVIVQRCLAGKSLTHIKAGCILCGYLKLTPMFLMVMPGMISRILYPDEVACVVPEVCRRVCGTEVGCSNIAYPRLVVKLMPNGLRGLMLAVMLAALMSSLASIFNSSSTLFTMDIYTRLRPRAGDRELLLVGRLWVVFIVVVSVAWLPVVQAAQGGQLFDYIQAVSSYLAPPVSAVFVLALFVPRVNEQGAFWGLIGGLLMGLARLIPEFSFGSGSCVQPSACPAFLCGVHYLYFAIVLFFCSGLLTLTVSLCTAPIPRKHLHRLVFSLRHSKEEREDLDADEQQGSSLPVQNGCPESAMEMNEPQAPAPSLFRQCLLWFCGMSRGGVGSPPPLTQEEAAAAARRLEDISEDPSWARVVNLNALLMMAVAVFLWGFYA
The assay can be described thus: SGLT2 assay: Na-dependent 14C-AMG uptake in CHO-K1 cells stably expressing human SGLT2. The assay is classed as cell-based. To be noted: 500 μM AMG, 2 hours at 37° C. On the procedure: as §1, §2, §3

Broadly, the IC50 is the concentration that inhibits the measured activity by half. Low readings indicate greater potency, high ones weaker potency.

Consider `[2H]C([2H])(c1ccc2c(c1)CC2)c1cc([C@@H]2O[C@H](CO)[C@@H](O)[C@H](O)[C@H]2O)c(O)cc1C` (single isomer, unassigned) [Compound 52], for which the IC50 was found to be 4 nM in assay [1] and 1 nM in assay [2].

Regarding `[2H]C([2H])(c1ccc2c(c1)CC2)c1cc([C@@H]2O[C@H](CO)[C@@H](O)[C@H](O)[C@H]2O)ccc1Cl` (single isomer, unassigned) [Compound 54], the results for the IC50 in assay [1] and in assay [2] were 63 nM and 1 nM, respectively.

In the case of `[2H]C([2H])(c1ccc2c(c1)CC2)c1cc([C@@H]2O[C@H](CO)[C@@H](O)[C@H](O)[C@H]2O)ccc1OC` (single isomer, unassigned) [Compound 57], the half-inhibitory concentration (IC50) stood at 44 nM in assay [1] and 6 nM in assay [2].

`[2H]C([2H])(c1ccc2c(c1)CC2)c1cc([C@@H]2O[C@H](CO)[C@@H](O)[C@H](O)[C@H]2O)c(OC)cc1OC` (single isomer, unassigned) [Compound 59]: the IC50 stood at 140 nM in assay [1] and 3 nM in assay [2].

Turning to `[2H]C1([2H])Cc2ccc(Cc3cc([C@@H]4O[C@H](CO)[C@@H](O)[C@H](O)[C@H]4O)c(O)cc3C)cc21` (single isomer, unassigned) [Compound 61], the IC50 in assay [1] came to 7 nM; in assay [2], 4 nM.

Take `[2H]C1([2H])Cc2ccc(Cc3cc([C@@H]4O[C@H](CO)[C@@H](O)[C@H](O)[C@H]4O)ccc3Cl)cc21` (single isomer, unassigned) [Compound 62]: the IC50 in assay [1] turned out to be 168 nM; in assay [2], 9 nM.

As to `[2H]C1([2H])Cc2ccc(Cc3cc([C@@H]4O[C@H](CO)[C@@H](O)[C@H](O)[C@H]4O)ccc3OC)cc21` (single isomer, unassigned) [Compound 64], the IC50 in assay [1] is 93 nM; in assay [2], 4 nM.

On to `[2H]C1([2H])Cc2ccc(Cc3cc([C@@H]4O[C@H](CO)[C@@H](O)[C@H](O)[C@H]4O)c(OC)cc3OC)cc21` (single isomer, unassigned) [Compound 68], for which the figures for the IC50 in assay [1] and in assay [2] were 41 nM and 2 nM, respectively.

`[2H]C1([2H])Cc2cc(Cc3cc([C@@H]4O[C@H](CO)[C@@H](O)[C@H](O)[C@H]4O)ccc3Cl)ccc21` (single isomer, unassigned) [Compound 81]: the IC50 in assay [1] was determined as 62 nM; in assay [2] it was 1 nM.

As for `[2H]C1([2H])Cc2cc(Cc3cc([C@@H]4O[C@H](CO)[C@@H](O)[C@H](O)[C@H]4O)ccc3OC)ccc21` (single isomer, unassigned) [Compound 82], the values for the IC50 in assay [1] and in assay [2] were 30 nM and 8 nM, respectively.

Take `[2H]C1([2H])Cc2cc(Cc3cc([C@@H]4O[C@H](CO)[C@@H](O)[C@H](O)[C@H]4O)c(OC)cc3OC)ccc21` (single isomer, unassigned) [Compound 84]: the IC50 is 63 nM in assay [1] and 2 nM in assay [2].

`[2H]c1c(C)c(Cc2ccc3c(c2)CC3)cc([C@@H]2O[C@H](CO)[C@@H](O)[C@H](O)[C@H]2O)c1O` (single isomer, unassigned) [Compound 121]: the results for the IC50 in assay [1] and in assay [2] were 11 nM and 2 nM, respectively.

`Cc1ccc([C@@H]2O[C@H](CO)[C@@H](O)[C@H](O)[C@H]2O)cc1Cc1ccc2c(c1)CC2` [Compound 1, (2S,3R,4R,5S,6R)-2-(3-((1,2-dihydrocyclobutabenzen-4-yl)methyl)-4-methylphenyl)-6-(hydroxymethyl)-tetrahydro-2H-pyran-3,4,5-triol]: the IC50 in assay [1] was determined as 33 nM; in assay [2] it was 1 nM.

For `OC[C@H]1O[C@@H](c2ccc(Cl)c(Cc3ccc4c(c3)CC4)c2)[C@H](O)[C@@H](O)[C@@H]1O` [Compound 2, (2S,3R,4R,5S,6R)-2-(4-chloro-3-((1,2-dihydrocyclobutabenzen-4-yl)methyl)phenyl)-6-(hydroxymethyl)-tetrahydro-2H-pyran-3,4,5-triol], the IC50 turned out to be 45 nM in assay [1] and 1 nM in assay [2].

Regarding `COc1ccc([C@@H]2O[C@H](CO)[C@@H](O)[C@H](O)[C@H]2O)cc1Cc1ccc2c(c1)CC2` [Compound 3, (2S,3R,4R,5S,6R)-2-(3-((1,2-dihydrocyclobutabenzen-4-yl)methyl)-4-methoxyphenyl)-6-(hydroxymethyl)-tetrahydro-2H-pyran-3,4,5-triol], the IC50 in assay [1] came to 39 nM; in assay [2], 3 nM.

Turning to `CCc1ccc([C@@H]2O[C@H](CO)[C@@H](O)[C@H](O)[C@H]2O)cc1Cc1ccc2c(c1)CC2` [Compound 4, (2S,3R,4R,5S,6R)-2-(3-((1,2-dihydrocyclobutabenzen-4-yl)methyl)-4-ethylphenyl)-6-(hydroxymethyl)-tetrahydro-2H-pyran-3,4,5-triol], the IC50 in assay [1] was 18 nM; in assay [2], 3 nM.

For `OC[C@H]1O[C@@H](c2ccc(C3CC3)c(Cc3ccc4c(c3)CC4)c2)[C@H](O)[C@@H](O)[C@@H]1O` [Compound 5, (2S,3R,4R,5S,6R)-2-(4-cyclopropyl-3-((1,2-dihydrocyclobutabenzen-4-yl)methyl)phenyl)-6-(hydroxymethyl)-tetrahydro-2H-pyran-3,4,5-triol], the IC50 was determined as 32 nM in assay [1] and 5 nM in assay [2].

In assay [1], `OC[C@H]1O[C@@H](c2cc(Cc3ccc4c(c3)CC4)c(Cl)cc2O)[C@H](O)[C@@H](O)[C@@H]1O` [Compound 8, (2S,3R,4R,5S,6R)-2-(5-(bicyclo[4.2.0]octa-1(6),2,4-trien-3-ylmethyl)-4-chloro-2-hydroxyphenyl)-6-(hydroxymethyl)oxane-3,4,5-triol] had an IC50 of 5 nM.

The compound `[2H]C([2H])(c1ccc2c(c1)CC2)c1cc([C@@H]2O[C@H](CO)[C@@H](O)[C@H](O)[C@H]2O)c(O)cc1Cl` [Compound 55, (2S,3R,4R,S,6R)-2-(5-[bicyclo[4.2.0]octa-1(6),2,4-trien-3-yl(dideuterium)methyl]-4-chloro-2-hydroxyphenyl)-6-(hydroxymethyl)oxane-3,4,5-triol] gave an IC50 in assay [1] of 7 nM.

In turn, `[2H]C([2H])([2H])Oc1cc(C)c(Cc2ccc3c(c2)CC3)cc1[C@@H]1O[C@H](CO)[C@@H](O)[C@H](O)[C@H]1O` [Compound 110] came in with an IC50 in assay [1] of 15 nM.

Regarding `[2H]C([2H])([2H])Oc1cc(CC)c(Cc2ccc3c(c2)CC3)cc1[C@@H]1O[C@H](CO)[C@@H](O)[C@H](O)[C@H]1O` [Compound 111], the IC50 in assay [1] worked out at 13 nM.

With `[2H]C([2H])([2H])Oc1cc(C)c(C([2H])([2H])c2ccc3c(c2)CC3)cc1[C@@H]1O[C@H](CO)[C@@H](O)[C@H](O)[C@H]1O` [Compound 119], in assay [1], the IC50 was determined as 41 nM.
